Data: patent US20240325340A1, “ISOFORM SPECIFIC AGONISTS TARGETING AKT KINASE” (Thomas Jefferson University, priority 2021, published 2024)
Entries after “also recorded” stand apart in the source; their conditions may differ.

Columns and labels:
Akt [1] = assay: Mouse cardiac ischemia-reperfusion injury model, Akt activation in heart; type: in vivo; settings: directly injected or intraperitoneally injected after ischemic-ligation
Method: FIG. 13A: A schematic of ischemic-reperfusion procedure indicating drug injection time and heart harvest time. FIG. 13B: Illustrates immunoblots of pS473, Akt phospho-substrate, pPRAS40 and GAPDH in the WES auto-western system. After ischemic-ligation, T625 (0.8 μg in 20 μl PBS) were directly injected at three spots of exposed ventricular wall. Injected insulin was used as a control. FIG. 13C: Illustrates immunoblots of pT308, total Akt (tAkt) and GAPDH and quantified pT308/tAkt ratio. After ischemic-ligation, T620 and T625 were directly injected or intraperitoneally injected.
(§1) A FlexiVent system (SCIREQ) was used to deliver Akt activator, T625, directly to mouse lung. This procedure closely mimics the clinical application of inhaled insulin. […] Akt activators were also administered in the setting of mouse cardiac ischemia-reperfusion injury model (FIGS. 13A-13C). T625 was directly injected into the left ventricular free wall at the time of ischemic ligation of exteriorized heart. Also, to mimic clinical use, (IP) Akt activators were intraperitoneally injected within 10 min after ischemia initiation. It was shown that both directly applied and intraperitoneally injected Akt activators activated Akt in the heart. Finally, a splinted murine excisional wound model that mimic human wound healing was used. […]

Akt [2] = assay: Ceramide and cathepsin G blockade of insulin activation of Akt in H9C2 myoblasts; type: cell-based; settings: H9C2 myoblasts, 30 μM T625 with insulin, 30 minutes
Method: (§2) H9C2 myoblasts or neonatal rat myocytes were treated with neutrophil protease Cathepsin G (0.01 U/mL), 4 hr or with 100 μM C2-Ceramide (100 μM), 2 hr. Then cells were stimulated with insulin with or without 30 μM T625 for 30 minutes. Lysates were immunoblotted with the indicated antibodies.

[3] = system: E17-Y18-I19 and R23-R25 mutated Akt kinase (Akt1-LT); assay: pT308 phosphorylation of mutated Akt1-LT constructs in H9C2 cells; type: cell-based; settings: 2 μM insulin 15 minutes
Source text: FIGS. 3A-3D: illustrate a model of T625 C-6 interaction space within the Akt PH domain and biochemical validation of the model. FIG. 3A: Model of the Akt2 PH-domain bound to T625 where all residue numbering corresponds to the Akt2 sequence. The C-6 Cl group act as the most optimal structural mimetic of the phosphate's electrostatic interactions with Arg23 and surrounding residues. […] To distinguish heterologous-expressed Akt from endogenous Akt, a 41 amino acid large tag containing the HA-epitope was fused with Akt1 (Akt1-LT) and specific mutations were created by site-directed mutagenesis. H9C2 cells expressing the indicated mutant constructs were stimulated for 15 minutes with 2 μM insulin, then switch to serum-free medium with 30 μM T625 as indicated for 60 minutes. […] H9C2 cells expressing the indicated mutant constructs were stimulated for 15 minutes with 2 μM insulin, then switch to serum-free medium with 20 μM T625 as indicated for 90 minutes. Phosphorylation of T308 in Akt1-LT and endogenous Akt, HA and GAPDH loading control blots are shown. FIG. 3D: Graph of specific pT308 phosphorylation in the indicated Akt1-LT constructs with or without T625 treatment. N is indicated.

Compound stability = type: physicochemical
Akt2-LT WT = molecular target: T1, Akt2-LT WT (Homo sapiens, UniProt P31751); assay: Phosphorylation of heterologously expressed Akt2-LT WT in H9C2 myoblasts; type: cell-based; settings: serum-free media, 2 hr
T1 construct: expressed in transfected cells; host or cells: H9C2 myoblasts
Method: (§3) FIGS. 2A-2B: illustrate the finding that T625's position 6 analogues differentially activate Akt and induce cellular toxicity. FIG. 2A: To distinguish heterologous-expressed Akt from endogenous Akt, a 41 amino acid large tag containing the HA-epitope was fused with wild type Akt2 (Akt2-LT WT). H9C2 myoblasts over-expressing Akt2-LT WT were treated with insulin or indicated compounds in serum-free media for 2 hr. Phosphorylation of T309 and total Akt2 are shown. FIG. 2B: Cell images show A549 AT2 cell morphology after 24 hr of drug treatment.

Akt [4] = assay: Ceramide and cathepsin G blockade of insulin activation of Akt in neonatal rat myocytes; type: cell-based; settings: 30 μM T625 with insulin, 30 minutes
Method: as §2

cells = assay: Cellular toxicity (cells not specified); type: cell-based
Akt [5] = assay: Aerosolized inhalation (FlexiVent) Akt activation in mouse lung; type: in vivo
Method: 8 week old (wk) wild type mice were deprived of food overnight. Anesthetized mice were intubated on the FlexiVent system and challenged with aerosolized inhaled insulin or T625 as indicated. Lung tissue was harvested 20 minutes after drug inhalation. Extracts were immunoblotted with indicated antibodies.
A FlexiVent system (SCIREQ) was used to deliver Akt activator, T625, directly to mouse lung. This procedure closely mimics the clinical application of inhaled insulin. […] Akt activators were also administered in the setting of mouse cardiac ischemia-reperfusion injury model (FIGS. 13A-13C). T625 was directly injected into the left ventricular free wall at the time of ischemic ligation of exteriorized heart. Also, to mimic clinical use, (IP) Akt activators were intraperitoneally injected within 10 min after ischemia initiation. It was shown that both directly applied and intraperitoneally injected Akt activators activated Akt in the heart. Finally, a splinted murine excisional wound model that mimic human wound healing was used. Akt activators were placed directly into the wound ring, mimicking the clinical topical application of growth factors.

recombinant pAkt1 = recombinant pAkt1 (Homo sapiens, UniProt P31749); assay: Recombinant phospho-Akt dephosphorylation by PP2A or total cellular phosphatase extracts (immunoblot pT308); type: biochemical; settings: 60 μM compound, 30 minutes at 30° C.
Method: FIG. 1A: Recombinant phospho-Akt (50 ng) were pre-mixed with DMSO or with 40 μM 4H-Chromenes with carboxylate side chain (SC-79 and HA-14) or with 60 μM malononitrile side chain (T625) at 4° C. Then recombinant PP2A (70 ng PP2A-C) or total cellular phosphatase extracts were added and incubated for 30 minutes at 30° C. After incubation, protein extracts were subjected to immunoblot analysis using antibodies detecting phosphorylated Akt (T308), total Akt and PP2A catalytic subunit. FIG. 1B comprises a graph showing the percentage of Akt dephosphorylation at 30 minutes (Dephos. %) (n=6) *P<0.01 vs. DMSO.

A549 AT2 cell = A549 AT2 cell morphology after 24 hr of drug treatment; type: cell-based, human; settings: A549 AT2 cells
Method: as §3

Akt [6] = assay: Splinted murine excisional skin wound model, topical treatment; type: in vivo, mouse; settings: 20 μL of 40 μM applied within the wound silicone circle, 20 min
Method: FIGS. 14A-14B illustrate the use of an Akt activator as topical treatment for healing mouse skin wound. […] 20 μL of indicated compounds were applied within the skin wound silicone circle for 20 min. Wound tissues were harvested and blotted with anti-Akt pS473 and GAPDH using the Proteinsimple WES system. Growth factor (GF) mixture (insulin, PDGF and IGF1 growth factor) or 40 μM T620 in corn oil or in PBS as vehicles. […] Images of WT mouse skin wound after vehicle (0.7% DMSO in PBS) or 40 μM T620 treatment at Day 3. Wound images and hematoxylin sections showing wound edge and wound bed are shown. Scale bar=400 μm.
as §1

A549 cells = assay: Cytotoxicity by release of lactate dehydrogenase (LDH) in A549 cells; type: cell-based, human; settings: 40 μM, 24 hours, serum-free media
Method: Cytotoxicity was determined by the release of lactate dehydrogenase (LDH) into cell culture media. A549 cells were incubated with 40 μM of each compound for 24 hours in serum-free media (n=3 for each compound). FIG. 8B: A visual assessment of cell morphology after 24 hrs treatment with 40 μM of each compound in serum-free media. 100× images are shown.

Hacat cells [7] = assay: Human keratinocyte migration (cell-free gap) assay; type: cell-based; settings: 40 μM, 22 hr, serum-starved
Method: FIGS. 11A-11B illustrates the finding that Akt activators in human keratinocyte cell line induce VEGF secretion and enhanced cell migration. FIG. 11A: Human keratinocyte line, HaCat cells, was incubated with 20 μM of each Akt activators for 24 hours. Insulin (3.5 μg/ml) and IGF1 (100 ng/mL) treatment were used as positive control. […] HaCaT cells were plated into silicone insert molds with a […] defined cell-free gap (Ibidi) and serum-starved overnight. Then, the mold barrier was removed and cells were treated with 40 μM T620. After 22 hr, the gap spaces were imaged at 100×. Two images of control and four images of T620 treated gap spaces are shown.

Hacat cells [8] = assay: Cellular toxicity / cell morphology in Hacat cells after 24 hrs; type: cell-based, human; settings: 40 μM

T1 sequence (P31751 whole entry): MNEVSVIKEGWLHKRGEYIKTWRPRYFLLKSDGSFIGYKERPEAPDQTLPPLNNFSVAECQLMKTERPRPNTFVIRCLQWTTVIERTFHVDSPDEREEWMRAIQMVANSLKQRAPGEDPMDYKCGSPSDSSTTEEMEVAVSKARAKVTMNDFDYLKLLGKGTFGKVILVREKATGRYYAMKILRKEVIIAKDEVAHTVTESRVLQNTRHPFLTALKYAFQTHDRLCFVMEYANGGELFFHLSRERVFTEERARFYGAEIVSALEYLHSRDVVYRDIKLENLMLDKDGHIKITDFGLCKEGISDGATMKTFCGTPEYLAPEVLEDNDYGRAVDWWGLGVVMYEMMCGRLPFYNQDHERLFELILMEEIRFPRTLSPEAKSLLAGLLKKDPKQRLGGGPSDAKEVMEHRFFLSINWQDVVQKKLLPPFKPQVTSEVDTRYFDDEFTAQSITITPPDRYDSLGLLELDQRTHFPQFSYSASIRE
recombinant pAkt1, sequence (P31749 whole entry): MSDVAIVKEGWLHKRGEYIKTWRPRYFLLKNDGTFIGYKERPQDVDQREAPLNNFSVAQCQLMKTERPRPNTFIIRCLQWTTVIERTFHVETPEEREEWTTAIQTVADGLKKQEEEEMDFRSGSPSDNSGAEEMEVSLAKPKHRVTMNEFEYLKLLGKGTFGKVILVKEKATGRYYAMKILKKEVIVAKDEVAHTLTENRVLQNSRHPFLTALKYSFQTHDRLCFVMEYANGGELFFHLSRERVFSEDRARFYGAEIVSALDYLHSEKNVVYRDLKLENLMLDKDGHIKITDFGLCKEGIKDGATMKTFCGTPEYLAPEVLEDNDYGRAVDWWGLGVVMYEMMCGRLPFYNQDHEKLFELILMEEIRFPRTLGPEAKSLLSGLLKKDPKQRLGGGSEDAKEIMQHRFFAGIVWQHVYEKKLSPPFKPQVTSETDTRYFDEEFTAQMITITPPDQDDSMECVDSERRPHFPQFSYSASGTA

SMILES: N#CC1=C(N)Oc2ccc(Cl)cc2C1C(C#N)C#N (centres unmarked) [T625, 2-(2-amino-6-chloro-3-cyano-4H-chromen-4-yl)propanedinitrile]
- Akt activation in mouse heart during ischemia-reperfusion (Akt [1]): enhanced Akt activation in mouse heart
- rescue of ceramide and cathepsin G blockade of Akt activation by insulin (Akt [2]): rescues ceramide and cathepsin G blockade of Akt activation
- effect on phosphorylation of mutated Akt kinase ([3]; E17-Y18-I19 and R23-R25 mutants, then 30 μM T625 60 minutes): acts as an inhibitor
- effect on phosphorylation of mutated Akt kinase ([3]; mutations in E17 and/or 119, then 20 μM T625 90 minutes): converting the T625 response from activation to inhibition
- compound stability (Compound stability): enhanced compound stability
- Akt activation in cells (phosphorylation of T309 of Akt2-LT WT) (Akt2-LT WT): retaining Akt activation; also recorded: activate Akt
- rescue of ceramide and cathepsin G blockade of Akt activation by insulin (Akt [4]): rescues ceramide and cathepsin G blockade of Akt activation
- cellular toxicity (cells): dramatically reduced cellular toxicity
- Akt kinase activation in mouse lung (Akt [5]; 60 μg, delivered directly to mouse lung by FlexiVent): retaining Akt activation; also recorded: robustly activated Akt kinase in mouse lung
- insulin sensitivity in vivo (Akt [5]; aerosolized inhaled, lung tissue harvested 20 minutes after inhalation): enhanced insulin sensitivity
- Akt activation in mouse lung tissue in combination with insulin (Akt [5]; suboptimal dose 15 μg with suboptimal insulin dose 5 μg): cooperated with suboptimal insulin dose (5 μg) to activate Akt in mouse lung tissue
- block of recombinant pAkt1 dephosphorylation by PP2A and cellular phosphatases (recombinant pAkt1): block recombinant pAkt1 dephosphorylation by PP2A and cellular phosphatases

SMILES: N#CC1=C(N)Oc2ccc([N+](=O)[O-])cc2C1C(C#N)C#N (centres unmarked) [T620, 2-(2-amino-3-cyano-6-nitro-4H-chromen-4-yl)propanedinitrile]
- cellular toxicity (cell morphology) (A549 AT2 cell): greatly reduced toxicity
- Akt activation in mouse heart during ischemia-reperfusion (Akt [1]): enhanced Akt activation in mouse heart
- Akt activation (pS473) within mouse skin wounds (Akt [6]): activated Akt within mouse skin wounds
- cellular toxicity (LDH release) (A549 cells): low toxicity; also recorded: failed to show significant cellular toxicity; also recorded: reduced cellular toxicity
- keratinocyte migration (Hacat cells [7]): enhance human keratinocyte migration
- Akt activation in cells (phosphorylation of T309 of Akt2-LT WT) (Akt2-LT WT): preserved Akt activation; also recorded: activate Akt
- cellular toxicity (Hacat cells [8]): failed to show significant cellular toxicity
- cellular toxicity (cells): reduced toxicity
